Laboratory results published in publication PMC9127750, “Structure-based design of CDC42 effector interaction inhibitors for the treatment of cancer” (Cell reports, 2022).
Where “and” joins values, the source holds several entries; their conditions need not be identical. Identical values can stand only once.

System: WM3248 melanoma cells, 486 antibodies
Experiment: Reverse phase protein arrays (RPPA)
Assay type: cell-based, Human
Excerpt: Pellets were snap frozen in liquid nitrogen and shipped to MD Anderson Cancer Center core RPPA facility for RPPA analysis (Table S5). Three biological replicates for each sample were generated.
Nomenclatures on the RPPA heatmaps: name_of_antibody.species_of_antibody.status_of_antibody. V - antibody validated; C - validation of antibody in progress; Q - antibody nonspecific; E – under evaluation; antibodies raised in M - mouse, G - goat, R - rabbit, or T - rat.

[1] = Norm_20, replicates 1-3 and Average, relative to Norm_0

With `CN(C)c1cccc(Nc2cc(-c3ccccc3)nc(C3CCNCC3)n2)c1` [ARN22089, N1,N1-dimethyl-N3-(6-phenyl-2-(piperidin-4-yl)pyrimidin-4-yl)benzene-1,3-diamine] as the molecule, how does the “Bax.R.V RPPA signal, normalized” value [1] read?
Its value is 1.116 and 1.001 and 1.099.

And the “Bcl2.R.C RPPA signal, normalized” value [1]?
The value was 1.192 and 1.263 and 1.147 and 1.201.

And the “Bcl.xL.R.V RPPA signal, normalized” value [1]?
Its value is 1.010 and 1.055 and 1.349 and 1.138.

What about the “Beclin.R.C RPPA signal, normalized” value [1] of the same molecule?
Its value is 0.940 and 1.021 and 1.001.

And the “BiP.GRP78.M.C RPPA signal, normalized” value [1]?
The value was 0.957 and 0.997 and 0.968.

What about the “Bid.R.C RPPA signal, normalized” value [1] of the same molecule?
The value was 1.024 and 0.874 and 0.875 and 0.925.

What about the “Bim.R.V RPPA signal, normalized” value [1] of the same molecule?
The value was 1.050 and 0.910 and 0.906 and 0.955.

And the “X4E.BP1.R.V RPPA signal, normalized” value [1]?
The value was 0.857 and 0.934 and 2.342 and 1.377.

And the “X4E.BP1_pS65.R.V RPPA signal, normalized” value [1]?
The value was 0.791 and 0.833 and 1.063 and 0.895.

And the “X4E.BP1_pT37_T46.R.V RPPA signal, normalized” value [1]?
Its value is 0.867 and 0.753 and 1.126 and 0.915.

And the “X14.3.3.zeta.R.V RPPA signal, normalized” value [1]?
The value was 0.941 and 0.920 and 0.970 and 0.944.

What about the “X14.3.3βR.V RPPA signal, normalized” value [1] of the same molecule?
Its value is 1.101 and 1.160 and 0.888 and 1.050.

What about the “X14.3.3εM.C RPPA signal, normalized” value [1] of the same molecule?
The value was 0.855 and 0.892 and 1.081 and 0.943.

And the “X53BP1.R.V RPPA signal, normalized” value [1]?
The value was 1.138 and 0.986 and 1.047 and 1.057.

What about the “b.Actin.R.C RPPA signal, normalized” value [1] of the same molecule?
Its value is 1.058 and 1.299 and 1.110 and 1.155.

What about the “b.Catenin.R.V RPPA signal, normalized” value [1] of the same molecule?
The value was 0.975 and 0.858 and 1.031 and 0.954.

And the “b.Catenin_pT41_S45.R.V RPPA signal, normalized” value [1]?
The value was 1.047 and 1.076.

What about the “c.Abl.R.V RPPA signal, normalized” value [1] of the same molecule?
The value was 1.061 and 1.026 and 1.186.

What about the “c.Abl_pY412.R.C RPPA signal, normalized” value [1] of the same molecule?
Its value is 1.034 and 0.935 and 1.009 and 0.993.

And the “c.IAP2.R.C RPPA signal, normalized” value [1]?
Its value is 1.049 and 1.145 and 1.104 and 1.100.

What about the C.Raf.R.C normalized signal (Norm_20 Average) of the same molecule?
Its C.Raf.R.C normalized signal is 0.952.

What about the CA9.R.C normalized signal (Norm_20 Average) of the same molecule?
Its CA9.R.C normalized signal is 0.890.

What about the CD2.M.C normalized signal (Norm_20 Average) of the same molecule?
The CD2.M.C normalized signal was 0.871.

What about the CD4.R.V normalized signal (Norm_20 Average) of the same molecule?
The CD4.R.V normalized signal was 1.005.

And the CD5.M.C normalized signal (Norm_20 Average)?
The CD5.M.C normalized signal was 0.944.

What about the CD20.R.C normalized signal (Norm_20 Average) of the same molecule?
Its CD20.R.C normalized signal is 1.356.

What about the CD26.R.V normalized signal (Norm_20 Average) of the same molecule?
Its CD26.R.V normalized signal is 1.108.

And the CD29.M.V normalized signal (Norm_20 Average)?
Its CD29.M.V normalized signal is 0.892.

What about the CD31.M.V normalized signal (Norm_20 Average) of the same molecule?
Its CD31.M.V normalized signal is 0.916.

And the CD44.R.C normalized signal (Norm_20 Average)?
Its CD44.R.C normalized signal is 1.001.

What about the CD45.M.V normalized signal (Norm_20 Average) of the same molecule?
The CD45.M.V normalized signal was 0.902.

And the CD49b.M.V normalized signal (Norm_20 Average)?
The CD49b.M.V normalized signal was 1.012.

What about the CD68.M.C normalized signal (Norm_20 Average) of the same molecule?
Its CD68.M.C normalized signal is 0.968.

And the CD74.M.V normalized signal (Norm_20 Average)?
The CD74.M.V normalized signal was 0.926.

And the CD134.R.V normalized signal (Norm_20 Average)?
The CD134.R.V normalized signal was 0.946.

And the CD171.M.V normalized signal (Norm_20 Average)?
The CD171.M.V normalized signal was 0.712.

What about the CDK1_pT14.R.C normalized signal (Norm_20 Average) of the same molecule?
Its CDK1_pT14.R.C normalized signal is 1.008.

And the CDK9.R.V normalized signal (Norm_20 Average)?
The CDK9.R.V normalized signal was 0.932.

And the CDKN2A.R.C normalized signal (Norm_20 Average)?
Its CDKN2A.R.C normalized signal is 0.921.

And the CDT1.R.V normalized signal (Norm_20 Average)?
The CDT1.R.V normalized signal was 0.857.

What about the CENP.A.R.V normalized signal (Norm_20 Average) of the same molecule?
The CENP.A.R.V normalized signal was 1.525.

And the CRABP1.R.C normalized signal (Norm_20 Average)?
The CRABP1.R.C normalized signal was 0.968.

And the CRABP2.R.V normalized signal (Norm_20 Average)?
The CRABP2.R.V normalized signal was 0.841.

And the CREB_pS133.R.C normalized signal (Norm_20 Average)?
Its CREB_pS133.R.C normalized signal is 1.190.

And the CSK.R.C normalized signal (Norm_20 Average)?
The CSK.R.C normalized signal was 0.923.

What about the Calnexin.R.V normalized signal (Norm_20 Average) of the same molecule?
Its Calnexin.R.V normalized signal is 0.926.

And the Caspase.3.cleaved.R.C normalized signal (Norm_20 Average)?
The Caspase.3.cleaved.R.C normalized signal was 1.013.

And the Caspase.7.cleaved..R.C normalized signal (Norm_20 Average)?
The Caspase.7.cleaved..R.C normalized signal was 1.013.

What about the Caspase.8.M.Q normalized signal (Norm_20 Average) of the same molecule?
Its Caspase.8.M.Q normalized signal is 0.961.

And the Caspase.8.cleaved.R.C normalized signal (Norm_20 Average)?
Its Caspase.8.cleaved.R.C normalized signal is 0.957.

And the Caveolin.1.R.V normalized signal (Norm_20 Average)?
Its Caveolin.1.R.V normalized signal is 0.866.

And the Cdc6.R.V normalized signal (Norm_20 Average)?
Its Cdc6.R.V normalized signal is 0.851.

And the Cdc42.R.C normalized signal (Norm_20 Average)?
Its Cdc42.R.C normalized signal is 0.996.

What about the Chk1.M.C normalized signal (Norm_20 Average) of the same molecule?
Its Chk1.M.C normalized signal is 0.786.

What about the Chk1_pS345.R.C normalized signal (Norm_20 Average) of the same molecule?
Its Chk1_pS345.R.C normalized signal is 1.170.

What about the Chk2.M.V normalized signal (Norm_20 Average) of the same molecule?
Its Chk2.M.V normalized signal is 0.875.

What about the Chk2_pT68.R.C normalized signal (Norm_20 Average) of the same molecule?
Its Chk2_pT68.R.C normalized signal is 1.128.

And the Claudin.7.R.V normalized signal (Norm_20 Average)?
Its Claudin.7.R.V normalized signal is 1.226.

What about the Collagen.VI.R.V normalized signal (Norm_20 Average) of the same molecule?
The Collagen.VI.R.V normalized signal was 1.013.

What about the Complex.II.Subunit.M.V normalized signal (Norm_20 Average) of the same molecule?
The Complex.II.Subunit.M.V normalized signal was 1.002.

What about the Coup.TFII.R.C normalized signal (Norm_20 Average) of the same molecule?
Its Coup.TFII.R.C normalized signal is 1.005.

And the Cox2.R.C normalized signal (Norm_20 Average)?
The Cox2.R.C normalized signal was 1.349.

And the Cox.IV.R.V normalized signal (Norm_20 Average)?
The Cox.IV.R.V normalized signal was 0.992.

And the Creb.R.C normalized signal (Norm_20 Average)?
Its Creb.R.C normalized signal is 1.053.

And the CtIP.R.V normalized signal (Norm_20 Average)?
Its CtIP.R.V normalized signal is 0.962.

And the Cyclin.B1.R.V normalized signal (Norm_20 Average)?
The Cyclin.B1.R.V normalized signal was 0.968.

What about the Cyclin.D1.R.C normalized signal (Norm_20 Average) of the same molecule?
The Cyclin.D1.R.C normalized signal was 0.986.

And the Cyclin.D3.M.V normalized signal (Norm_20 Average)?
The Cyclin.D3.M.V normalized signal was 0.749.

And the Cyclin.E1.R.V normalized signal (Norm_20 Average)?
Its Cyclin.E1.R.V normalized signal is 0.902.

And the Cyclophilin.F.M.V normalized signal (Norm_20 Average)?
The Cyclophilin.F.M.V normalized signal was 0.934.

And the D.a.Tubulin.R.V normalized signal (Norm_20 Average)?
The D.a.Tubulin.R.V normalized signal was 0.990.

What about the DAPK1_pS308.M.C normalized signal (Norm_20 Average) of the same molecule?
Its DAPK1_pS308.M.C normalized signal is 2.076.

What about the DAPK2.R.C normalized signal (Norm_20 Average) of the same molecule?
The DAPK2.R.C normalized signal was 1.013.

What about the DDB.1.R.V normalized signal (Norm_20 Average) of the same molecule?
The DDB.1.R.V normalized signal was 0.922.

What about the DDR1.R.V normalized signal (Norm_20 Average) of the same molecule?
Its DDR1.R.V normalized signal is 0.996.

What about the DDR1_pY513.R.C normalized signal (Norm_20 Average) of the same molecule?
The DDR1_pY513.R.C normalized signal was 1.082.

And the DJ1.R.V normalized signal (Norm_20 Average)?
The DJ1.R.V normalized signal was 0.929.

And the DM.Histone.H3.R.V normalized signal (Norm_20 Average)?
The DM.Histone.H3.R.V normalized signal was 1.963.

And the DM.K9.Histone.H3.M.V normalized signal (Norm_20 Average)?
Its DM.K9.Histone.H3.M.V normalized signal is 1.372.

And the DNA.Ligase.IV.R.C normalized signal (Norm_20 Average)?
The DNA.Ligase.IV.R.C normalized signal was 0.924.

And the DNA_POLG.R.V normalized signal (Norm_20 Average)?
Its DNA_POLG.R.V normalized signal is 1.084.
